Reference: article PMC7665585, “Antidepressive effect of an inward rectifier K^+ channel blocker peptide, tertiapin-RQ” (PLoS ONE, 2020)
Bridge positions count the residues as written; N and C are the ends. Peptide text beside a SMILES is read from it.

Tests used:
mouse GIRK1/2 = molecular target: T1, mouse GIRK1/2 (Mus musculus, UniProt P48542+P63250); test: Whole-cell patch-clamp of GIRK1/2 in transfected 293T cells; format: cell-based
T1 construct: expressed in transfected cells; host or cells: 293T cells, transient calcium phosphate transfection, pCMV6 plasmid
T1 sequence (P63250 1-501): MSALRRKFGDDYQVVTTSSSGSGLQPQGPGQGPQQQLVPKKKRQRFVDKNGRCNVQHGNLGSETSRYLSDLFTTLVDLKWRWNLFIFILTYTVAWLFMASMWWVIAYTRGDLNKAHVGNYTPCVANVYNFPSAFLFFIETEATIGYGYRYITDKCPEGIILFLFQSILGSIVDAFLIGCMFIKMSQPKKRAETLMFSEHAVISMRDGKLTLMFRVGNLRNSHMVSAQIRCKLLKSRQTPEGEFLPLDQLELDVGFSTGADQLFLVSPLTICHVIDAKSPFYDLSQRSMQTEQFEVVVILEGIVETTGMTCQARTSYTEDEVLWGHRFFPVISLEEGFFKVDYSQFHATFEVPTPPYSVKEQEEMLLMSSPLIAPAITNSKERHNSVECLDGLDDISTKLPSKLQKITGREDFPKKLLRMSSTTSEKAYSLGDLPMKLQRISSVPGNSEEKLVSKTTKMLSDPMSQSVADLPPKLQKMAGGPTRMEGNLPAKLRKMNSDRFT
T1 sequence (P48542 1-425): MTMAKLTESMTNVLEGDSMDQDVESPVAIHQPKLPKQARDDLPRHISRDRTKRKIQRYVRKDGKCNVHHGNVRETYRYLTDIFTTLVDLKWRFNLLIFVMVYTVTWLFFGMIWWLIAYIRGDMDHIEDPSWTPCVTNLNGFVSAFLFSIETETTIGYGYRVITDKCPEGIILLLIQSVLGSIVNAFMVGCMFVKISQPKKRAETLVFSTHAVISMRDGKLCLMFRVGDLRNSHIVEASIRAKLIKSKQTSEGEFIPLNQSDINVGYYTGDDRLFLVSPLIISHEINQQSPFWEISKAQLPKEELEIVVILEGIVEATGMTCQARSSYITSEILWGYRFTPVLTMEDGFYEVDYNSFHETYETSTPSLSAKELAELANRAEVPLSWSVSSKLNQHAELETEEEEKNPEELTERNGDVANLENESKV
Description: The cDNAs for rat ROMK and mouse GIRK1, 2, and 4 were generously donated by Drs Mikio Hayashi (Kansai Medical University) and David Weaver (Vanderbilt University). The ROMK channels were stably expressed by a cell line, 208–4, which was transduced with lentiviral vectors coexpressing the channel and green fluorescent protein (GFP) as described previously. The GIRK genes, cloned in a pCMV6 plasmid (Origene Technologies Inc, Rockville, MD), were transiently expressed in 293T cells with calcium phosphate transfection. GIRK channel currents were recorded 24 h after transfection.
Cells grown on small cover glasses (3 × 18 mm) were placed in a recording chamber. Whole-cell currents were recorded in Tyrode solution using an Axopatch 200B amplifier (Axon Instruments, Foster City, CA) at 25°C. Tyrode solution contained (in mM): NaCl 140, KCl 5.4, NaH2PO4 0.33, CaCl2 2, MgCl2 1, HEPES 5, and glucose 5.5 (pH 7.4 adjusted with NaOH). […] Whole-cell currents were recorded 60 sec after the peptide application and those from 100 to 300 msec of the step pulses were averaged. […] Whole-cell conductance was calculated as the slope of the current-voltage (I-V) relationship from -140 mV to -100 mV and normalized to the initial value (0 μM TPN), in which BaCl2-resistant current was subtracted and indicted as a percentage.

Male ICR mice = test: Wheel running test; format: in vivo, mouse; details: i.c.v.; 4 min, immediately after EPM
Description: We performed mouse behavioral experiments in accordance with our previous study. Male ICR mice (n = 199 in total) aged 5 weeks old were purchased from Shimizu Laboratory Supplies (Kyoto, Japan) and maintained in an animal facility for 7–12 days. They had free access to food and water and were kept in a 12-h light/dark cycle (08:00–20:00). Experiments were carried out between 11:00 and 17:00 in a quiet and air-conditioned experimental room, to which mice were habituated for 30–60 min before each experiment. Animal experiments were performed in accordance with the guidelines of the Physiological Society of Japan and were approved by the Committee for Animal Experiments of Kurashiki University of Science and the Arts. Peptides were dissolved in phosphate-buffered saline (PBS). Peptides were injected intracerebroventricularly (i.c.v.) 30 min before behavioral tests (typically 5 μL/mouse), according to a previous study. The mouse was placed into an anesthetizing jar, to which isoflurane (0.2 mL) was added immediately before. […]
Spontaneous motor activity was measured with a multifunctional activity wheel (MK-770, Muromachi Kikai, Tokyo, Japan). […] The number of rotations was counted automatically.

Row | Structure (SMILES) | difference in IC50, GIRK1/2 over ROMK (mouse GIRK1/2; ratio of IC50 GIRK1/2 to IC50 ROMK) [fold] | spontaneous rotations in activity wheel (Male ICR mice) | IC50 (mouse GIRK1/2; 293T cells transiently expressing mouse GIRK1/2, high K+ Tyrode solution (Fig 7), read-out: IC50, GIRK1/2 conductance) [nM]
1 | CC[C@H](C)[C@@H]1NC(=O)[C@H](CCCNC(=N)N)NC(=O)[C@H](CC(N)=O)NC(=O)[C@@H]2CSSC[C@@H](C(=O)NCC(=O)N[C@@H](CCCCN)C(=O)N[C@@H](CCCCN)C(N)=O)NC(=O)[C@H](CCCCN)NC(=O)[C@H](CCCCN)NC(=O)[C@H](Cc3c[nH]c4ccccc34)NC(=O)[C@H](CSSC[C@H](NC(=O)[C@H](CC(C)C)NC(=O)[C@H](C)N)C(=O)N[C@@H](CC(N)=O)C(=O)N2)NC(=O)[C@H](CCC(N)=O)NC(=O)[C@H](CC(C)C)NC(=O)[C@@H]2CCCN2C(=O)[C@H]([C@@H](C)CC)NC(=O)[C@H]([C@@H](C)CC)NC1=O [Peptide 3, TPN-LQ] (H-ALCNCNRIIIPLQCWKKCGKK-NH2; disulfide 3-14, 5-18; N-terminus and C-terminus assumed) | 20.9 | decreased | –
2 | CC[C@H](C)[C@@H]1NC(=O)[C@H](CCCNC(=N)N)NC(=O)[C@H](CCCNC(=N)N)NC(=O)[C@H](CC(N)=O)NC(=O)[C@@H]2CSSC[C@@H](C(=O)NCC(=O)N[C@@H](CCCCN)C(=O)N[C@@H](CCCCN)C(N)=O)NC(=O)[C@H](CCCCN)NC(=O)[C@H](CCCCN)NC(=O)[C@H](Cc3c[nH]c4ccccc34)NC(=O)[C@H](CSSC[C@H](NC(=O)[C@H](CC(C)C)NC(=O)[C@H](C)N)C(=O)N[C@@H](CC(N)=O)C(=O)N2)NC(=O)[C@H](CCC(N)=O)NC(=O)[C@H](Cc2c[nH]cn2)NC(=O)[C@@H]2CCCN2C(=O)[C@H]([C@@H](C)CC)NC1=O [Peptide 2, TPN-RQ] (H-ALCNCNRRIIPHQCWKKCGKK-NH2; disulfide 3-14, 5-18) | – | decreased spontaneous motor activity | 610
